We go through 6 molecules from PMC10252509, “Study on the In Silico Screening and Characterization, Inhibition Mechanisms, Zinc-Chelate Activity, and Stability of ACE-Inhibitory Peptides Identified in Naked Oat Bran Albumin Hydrolysates” (Foods, 2023).

Data set [1] in a line: Zinc solubility of peptide-Zn complexes during simulated gastrointestinal digestion. The following applies: intestinal phase, from 120 to 240 min; PAR method.
In data set [2] the target is T1, ACE (Oryctolagus cuniculus, UniProt P12822).
T1 construct: purchased Sigma (St. Louis, MO, USA)
T1 sequence (P12822 34-1310): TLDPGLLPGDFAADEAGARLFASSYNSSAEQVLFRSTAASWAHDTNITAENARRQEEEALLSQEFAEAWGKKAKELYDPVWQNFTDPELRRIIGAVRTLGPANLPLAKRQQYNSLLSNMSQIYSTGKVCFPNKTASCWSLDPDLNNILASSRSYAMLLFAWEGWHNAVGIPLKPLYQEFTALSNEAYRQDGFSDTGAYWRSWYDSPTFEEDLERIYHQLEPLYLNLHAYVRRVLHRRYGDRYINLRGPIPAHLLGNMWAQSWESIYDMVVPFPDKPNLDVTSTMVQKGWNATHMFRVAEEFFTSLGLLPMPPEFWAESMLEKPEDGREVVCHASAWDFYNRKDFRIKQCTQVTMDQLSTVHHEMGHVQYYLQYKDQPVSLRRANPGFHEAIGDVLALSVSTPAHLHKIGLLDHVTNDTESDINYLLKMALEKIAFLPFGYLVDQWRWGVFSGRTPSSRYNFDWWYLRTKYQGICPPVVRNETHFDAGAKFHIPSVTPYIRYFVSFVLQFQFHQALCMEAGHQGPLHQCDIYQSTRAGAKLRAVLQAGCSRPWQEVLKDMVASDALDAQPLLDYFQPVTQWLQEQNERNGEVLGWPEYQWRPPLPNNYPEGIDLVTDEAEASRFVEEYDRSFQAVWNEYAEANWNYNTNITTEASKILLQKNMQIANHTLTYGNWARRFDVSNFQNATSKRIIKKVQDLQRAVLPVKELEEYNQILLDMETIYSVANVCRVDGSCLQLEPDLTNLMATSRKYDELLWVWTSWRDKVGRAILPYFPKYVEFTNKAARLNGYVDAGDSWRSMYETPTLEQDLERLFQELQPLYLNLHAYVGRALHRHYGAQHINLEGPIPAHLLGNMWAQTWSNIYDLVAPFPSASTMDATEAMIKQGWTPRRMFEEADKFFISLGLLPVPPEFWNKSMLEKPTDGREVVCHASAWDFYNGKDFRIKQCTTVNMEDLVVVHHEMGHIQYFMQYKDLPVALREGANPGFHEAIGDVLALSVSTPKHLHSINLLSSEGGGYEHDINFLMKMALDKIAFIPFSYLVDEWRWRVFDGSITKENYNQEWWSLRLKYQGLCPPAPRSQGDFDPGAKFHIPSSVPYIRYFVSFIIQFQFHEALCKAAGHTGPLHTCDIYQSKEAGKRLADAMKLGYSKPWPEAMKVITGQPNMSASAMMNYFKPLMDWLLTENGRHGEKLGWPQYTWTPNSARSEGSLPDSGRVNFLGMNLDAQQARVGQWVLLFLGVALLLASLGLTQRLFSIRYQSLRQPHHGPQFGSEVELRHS
The data set is described as follows: ACE inhibition capacity (HHL substrate, hippuric acid at 228 nm). The class given is biochemical. The following applies: synthesized peptide; ACE 25 mU, HHL 8.3 mmol/L, 37 °C, 60 min, absorbance 228 nm; from regression of inhibition vs concentration; n at least 3; read-out: ACE-inhibitory activity (IC50). How it is done:
Briefly, ACE (25 mU) was pre-incubated at 37 °C for 10 min. Then, ACE (75 µL), 225 µL of HHL (8.3 mmol/L), and peptide solution (75 µL) were mixed and stirred at 75 r/min and 37 °C for 60 min [28]. The reaction was stopped through the addition of 0.375 mL of HCl (1 mol/L). Next, 2.1 mL of ethyl acetate was added to extract the produced hippuric acid. After centrifugation at 14,000× g for 150 s, 1 mL of the upper solution (ethyl acetate extraction) was transferred into a glass test tube and heated at 120 °C for 32 min. Then, deionized water (1 mL) was added and determined at 228 nm. The control group was subjected to the same procedures but without samples. The inhibition ability of the samples toward ACE was defined as the percentage of the difference in absorbance at 228 nm between the sample and control compared to the absorbance of the control at 228 nm. The concentration of peptides needed to inhibit half of ACE activity was defined as IC50.

The nature of data set [3]: Zn-chelating ability (4-(2-Pyridinazo)-resorcinol colorimetric method). Type of data set: physicochemical. The conditions noted are these: 350 μg sample, zinc sulfate 0.25 mmol/L, HEPES-KOH, DTT, 37 °C, 12 min; PAR method, 500 nm; reduction of zinc ions per mass of sample; mean ± SD, n at least 3. How it is done: NOBAH peptides (350 μg), 0.5 mL zinc sulfate solution (0.25 mmol/L), 0.5 mL DTT (8 mmol/L), 1 mL HEPES-KOH buffer (100 μmol/L), and 8 mL dH2O were mixed thoroughly. After stirring at 37 °C and 175 r/min for 12 min, 1 mL of reaction solution was sucked out and used for zinc concentration determination using the 4-(2-Pyridinazo)-resorcinol method. The standard regression curve of zinc concentration (x, μg/mL) with the absorbance at 500 nm (y) was y = 0.0901n(x) + 0.1012, R^2 = 0.9802 [27]. The zinc chelation rate of the sample was defined as the reduction of zinc ions in the reaction solution per mass of the sample (mg/g).
Amino acid sequence identification was conducted on a Q Exactive hybrid quadrupole orbitrap mass spectrometer (Thermo Fisher, Bremen, Germany) according to the description of Li et al.. Peak-Studio-7.5-De-Novo™ software (Bioinformatics Solutions, Inc., Waterloo, ON, Canada) was employed to analyze data from the mass spectrometer. The National Center for Biotechnology Information Database (Bethesda, MD, USA) was used for the verification of the obtained sequences. The PAR colorimetric method was employed to measure the Zn-chelating ability of the obtained sequences. Potential antihypertensive effects were predicted using the database AHTPDB [29]. […] Moreover, the physicochemical characteristics of the obtained peptides were analyzed with the database AHTPDB.

Data set [4] relates to ACE. Further details: method as in 2 sources, one per row (each row's own in cited_ref): ref [24] = [24]; PMID 32220144; doi:10.1111/1750-3841.15115; 24. Zheng Y. Wang X. Zhuang Y. Li Y. Shi P.Q. Tian H. Li X.T. Chen X. Isolation of novel ACE-inhibitory peptide from naked oat globulin hydrolysates in silico approach: Molecular docking, in vivo anti ||| ref [4],[35] = [4]; doi:10.1016/j.lwt.2022.114008; 4. Renjuan L. Xiuli Z. Liping S. Yongliang Z. Identification, in silico screening, and molecular docking of novel ACE inhibitory peptides isolated from the edible symbiot Boletus griseus-Hypomyces chr || [35]; doi:10.1016/j.lwt.2022.113196; 35. Wei G. Zhao Q. Wang D. Fan Y. Shi Y. Huang A. Novel ACE inhibitory, antioxidant and α-glucosidase inhibitory peptides identified from fermented rubing cheese through peptidomic and molecular docki. The conditions noted are these: literature comparison; ref [4],[35]; read-out: ACE inhibition IC50; cited from earlier work.

Where no end group is shown, it is not given here.

On to `O=C([O-])[C@H](O)[C@@H](O)[C@H](O)[C@H](O)CO.O=C([O-])[C@H](O)[C@@H](O)[C@H](O)[C@H](O)CO.[Zn+2]` [zinc gluconate, Zinc gluconate], for which the “Zinc solubility compared with zinc sulfate” value in data set [1] was “higher zinc solubility than that of zinc sulfate”.
For QYVPF [QYVPF, Gln-Tyr-Val-Pro-Phe], the half-maximal inhibitory concentration (IC50) on ACE [2] turned out to be 243 µM.
In turn, “GTTGGMGT [peptide identified in NOBAH-6-D]” returned a Zinc chelating capacity in data set [3] of 3.36 ± 0.16 e mg/g.
Consider LFRPE, for which, in the data set on ACE [4], the half-inhibitory concentration (IC50) was 11.3 µM.
As for GYHGH [GYHGH, Gly-Tyr-His-Gly-His], the IC50 on ACE [2] came to 322 µM.
Consider “QPHQPL [peptide identified in rubing cheese]”, for which the IC50 in the data set with ACE [4] is 464 µM.

As a reminder, the IC50 is the concentration that inhibits the measured activity by half.
